By EC50 is commonly meant the concentration at which the effect is half-maximal.

We go through two compounds from patent publication US10603384B2, “Pharmaceutical composition containing an antivirally active dihydroquinazoline derivative” (AICURIS GMBH & CO. KG, priority 2012, dated 2020).

This experiment concerns HCMV AD 169 RV-HG. Briefly: HCMV fluorescence-reduction test (GFP-RA). It is filed as cell-based, human cytomegalovirus. The following applies: Human betaherpesvirus 5, AD169, NHDF, 168 h, read-out: EC50 (GFP-RA). The text has this:
The in vitro effects of the compositions according to the present invention on the replication of the HCMV (human cytomegalovirus) can be seen in the following antiviral assay:
The solution from Example 8 is used without further dilution in the test. The composition from Example 6A is used as a 50-millimolar (mM) solution in dimethyl sulphoxide (DMSO). Ganciclovir®, Foscarnet® or Cidofovir® can be used as reference compositions. One day before the beginning of the test, 1.5×10^4 human foreskin fibroblasts (NHDF cells)/well are seeded in 200 μl of cell culture medium in Wells B2-G11 of 96-well plates (black with transparent floor). The wells along the edges of each 96-well plate are filled with 200 μl of medium only in order to prevent edge effects. […] The virus used is a recombinant HCMV which has integrated an expression cassette for green fluorescence protein (GFP) in the virus genome (HCMV AD 169 RV-HG [E. M. Borst, K. Wagner, A. Binz, B. Sodeik, and M. Messerle, 2008, J. Virol. 82:2065-2078.]). […] The GFP intensity of each well in a 96-well plate is then determined using a fluorescence scanner (FluoBox; Bayer Technology Services GmbH; filter settings: GFP, Ex 480 nm, Em 520 nm). The measured values thus obtained can be used to determine the EC50 of an anti-HCMV: […]

For `COc1cccc(N2CCN(C3=Nc4c(F)cccc4[C@H](CC(=O)O)N3c3cc(C(F)(F)F)ccc3OC)CC2)c1` [Example 6A, (S)-{8-fluoro-2-[4-(3-methoxyphenyl)piperazine-1-yl]-3-(2-methoxy-5-trifluoromethylphenyl)-3,4-dihydroquinazoline-4-yl}acetic acid], the EC50 was found to be 2.2 ± 0.2 nM.
With `Nc1nc(O)c2ncn(COC(CO)CO)c2n1` [Ganciclovir] the figure was 2500 ± 400 nM.
